Each compound was assayed on PC3 cells (assay: NAMPT Cell Proliferation Assay). Conditions: Homo sapiens, PC-3, 120 h, 5 days incubation, cell viability by Cell Titer Glo.
Format: cell-based
Method in brief: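 Five-day CellTiter-Glo viability readout in PC3 cells grown in RPMI/10% heat-inactivated FBS. Compounds added after overnight attachment as a 10-fold dilution series, […]. Percent inhibition fitted to sigmoidal dose-response to derive IC50.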

| Structure (SMILES) | IC50 |
| --- | --- |
| CC(C)CC(=O)N1CCC(Oc2ccc(NC(=O)C3CN(c4ccnnc4)C3)cc2)CC1 [Example 266, N-(4-{[1-(3-methylbutanoyl)piperidin-4-yl]oxy}phenyl)-1-(pyridazin-4-yl)azetidine-3-carboxamide] | 83 nM |
| O=C(Nc1ccc(O[C@@H]2CCN(C(=O)c3ccccn3)C2)cc1)C1CN(c2ccnnc2)C1 [Example 463, 1-(pyridazin-4-yl)-N-(4-{[(3R)-1-(pyridin-2-ylcarbonyl)pyrrolidin-3-yl]oxy}phenyl)azetidine-3-carboxamide] | 70.9 nM |
| O=C(Nc1ccc(C2CCN(C(=O)Cc3ccc(F)cc3F)CC2)cc1)C1CN(c2ccnnc2)C1 [Example 536, N-(4-{1-[(2,4-difluorophenyl)acetyl]piperidin-4-yl}phenyl)-1-(pyridazin-4-yl)azetidine-3-carboxamide] | 6.14 nM |
| CC(C)C(=O)N1CCC(c2ccc(C(=O)N[C@H]3CCN(c4cccnn4)C3)cc2)CC1 [Example 752, 4-[1-(2-methylpropanoyl)piperidin-4-yl]-N-[(3S)-1-(pyridazin-3-yl)pyrrolidin-3-yl]benzamide] | 2450 nM |
| CCC(C)(C)C(=O)N1CCC(c2ccc(C(=O)NC3CN(c4cccnn4)C3)s2)CC1 [Example 850, 5-[1-(2,2-dimethylbutanoyl)piperidin-4-yl]-N-[1-(pyridazin-3-yl)azetidin-3-yl]thiophene-2-carboxamide] | 70.5 nM |
| CC1CC1C(=O)N1CC(Oc2ccc(NC(=O)C3CN(c4ccnnc4)C3)cc2)C1 (centres unmarked) [Example 257, N-[4-({1-[(2-methylcyclopropyl)carbonyl]azetidin-3-yl}oxy)phenyl]-1-(pyridazin-4-yl)azetidine-3-carboxamide] | 76.1 nM |
| O=C(Nc1ccc(OC2CCN(C(=O)c3cscn3)CC2)cc1)C1CN(c2cccnn2)C1 [Example 218, 1-(pyridazin-3-yl)-N-(4-{[1-(1,3-thiazol-4-ylcarbonyl)piperidin-4-yl]oxy}phenyl)azetidine-3-carboxamide] | 8.86 nM |
| Cc1ccc(F)cc1C(=O)N1CCC(c2ccc(NC(=O)C3CN(c4cccnn4)C3)cc2)CC1 [Example 388, N-{4-[1-(5-fluoro-2-methylbenzoyl)piperidin-4-yl]phenyl}-1-(pyridazin-3-yl)azetidine-3-carboxamide] | 0.88 nM |
| O=C(Nc1ccc(C2CCN(C(=O)Cc3ccccc3Cl)CC2)cc1)[C@H]1CCN(c2cccnn2)C1 [Example 721, (3S)-N-(4-{1-[(2-chlorophenyl)acetyl]piperidin-4-yl}phenyl)-1-(pyridazin-3-yl)pyrrolidine-3-carboxamide] | 8.39 nM |
| CC(C)C(=O)N1CCC(S(=O)(=O)c2ccc(NC(=O)C3CN(c4ccnnc4)C3)cc2)CC1 [Example 614, N-(4-{[1-(2-methylpropanoyl)piperidin-4-yl]sulfonyl}phenyl)-1-(pyridazin-4-yl)azetidine-3-carboxamide] | 7660 nM |
| COCCOCC(=O)N1CCC(Oc2ccc(NC(=O)C3CN(c4cccnc4)C3)cc2)CC1 [Example 48, N-[4-({1-[(2-methoxyethoxy)acetyl]piperidin-4-yl}oxy)phenyl]-1-(pyridin-3-yl)azetidine-3-carboxamide] | 2.88 nM |
| Cc1ccc(N2CC[C@H](C(=O)Nc3ccc(OC4CCN(C(=O)C5CCCCC5)CC4)cc3)C2)nn1 [Example 839, (3S)—N-(4-{[1-(cyclohexylcarbonyl)piperidin-4-yl]oxy}-phenyl)-1-(6-methylpyridazin-3-yl)pyrrolidine-3-carboxamide] | 2000 nM |
| CCC(CC)C(=O)N1CCC(c2ccc(NC(=O)C3CN(c4ccc(F)nn4)C3)cc2)CC1 [Example 822, N-{4-[1-(2-ethylbutanoyl)piperidin-4-yl]phenyl}-1-(6-fluoropyridazin-3-yl)azetidine-3-carboxamide] | 60.5 nM |
| CC[C@H](C)C(=O)N1CCC(Oc2ccc(NC(=O)C3CN(c4ccnnc4)C3)cc2)CC1 [Example 307, N-[4-({1-[(2S)-2-methylbutanoyl]piperidin-4-yl}oxy)phenyl]-1-(pyridazin-4-yl)azetidine-3-carboxamide] | 20.8 nM |
| O=C(Nc1ccc(C2CCN(C(=O)c3cscn3)CC2)cc1)C1CN(c2cccnn2)C1 [Example 430, 1-(pyridazin-3-yl)-N-{4-[1-(1,3-thiazol-4-ylcarbonyl)piperidin-4-yl]phenyl}azetidine-3-carboxamide] | 1.42 nM |
| O=C(Nc1ccc(O[C@@H]2CCN(C(=O)Cc3cc(F)cc(F)c3)C2)cc1)C1CN(c2cccnn2)C1 [Example 492, N-[4-({(3R)-1-[(3,5-difluorophenyl)acetyl]pyrrolidin-3-yl}oxy)phenyl]-1-(pyridazin-3-yl)azetidine-3-carboxamide] | 3.73 nM |
| O=C(Nc1ccc(C2CCN(C(=O)CC3CCCC3)CC2)cc1)C1CN(c2cccnn2)C1 [Example 397, N-{4-[1-(cyclopentylacetyl)piperidin-4-yl]phenyl}-1-(pyridazin-3-yl)azetidine-3-carboxamide] | 3.35 nM |
| O=C(Nc1ccc(C2CCN(C(=O)CC3CCCC3)CC2)cc1)[C@H]1CCN(c2ccnnc2)C1 [Example 142, (3S)—N-{4-[1-(cyclopentylacetyl)piperidin-4-yl]phenyl}-1-(pyridazin-4-yl)pyrrolidine-3-carboxamide] | 741 nM |

| Structure (SMILES) | IC50 |
| --- | --- |
| O=C(NC1CN(c2cccnc2)C1)c1ccc(OC2CCN(C(=O)CC3CCOCC3)CC2)cc1 [Example 21, N-[1-(pyridin-3-yl)azetidin-3-yl]-4-{[1-(tetrahydro-2H-pyran-4-ylacetyl)piperidin-4-yl]oxy}benzamide] | 150 nM |
| O=C(Nc1ccc(O[C@@H]2CCN(C(=O)c3ccsc3)C2)cc1)C1CN(c2cccnn2)C1 [Example 490, 1-(pyridazin-3-yl)-N-(4-{[(3R)-1-(thiophen-3-ylcarbonyl)pyrrolidin-3-yl]oxy}phenyl)azetidine-3-carboxamide] | 0.68 nM |
| CC(C)Cn1cc(-c2ccc(C(=O)N[C@H]3CCN(c4cccnn4)C3)s2)cn1 [Example 606, 5-[1-(2-methylpropyl)-1H-pyrazol-4-yl]-N-[(3S)-1-(pyridazin-3-yl)pyrrolidin-3-yl]thiophene-2-carboxamide] | 86.7 nM |
| O=C(Nc1ccc(O[C@@H]2CCN(C(=O)c3ccc(Cl)cc3)C2)cc1)C1CN(c2cccnn2)C1 [Example 507, N-(4-{[(3R)-1-(4-chlorobenzoyl)pyrrolidin-3-yl]oxy}phenyl)-1-(pyridazin-3-yl)azetidine-3-carboxamide] | 8.34 nM |
| O=C(Nc1ccc(C2CCN(C(=O)C3CCCCC3)CC2)cc1)[C@H]1CCN(c2cccnn2)C1 [Example 730, (3S)-N-{4-[1-(cyclohexylcarbonyl)piperidin-4-yl]phenyl}-1-(pyridazin-3-yl)pyrrolidine-3-carboxamide] | 6.81 nM |
| Cc1ncccc1N1CC(C(=O)Nc2ccc(C3CCN(C(=O)CN4CCOCC4)CC3)cc2)C1 [Example 164, 1-(2-methylpyridin-3-yl)-N-{4-[1-(morpholin-4-ylacetyl)piperidin-4-yl]phenyl}azetidine-3-carboxamide] | 202 nM |
| C=CCC(=O)N1CCC(c2ccc(NC(=O)[C@H]3CCN(c4cccnn4)C3)cc2)CC1 [Example 717, (3S)-N-{4-[1-(but-3-enoyl)piperidin-4-yl]phenyl}-1-(pyridazin-3-yl)pyrrolidine-3-carboxamide] | 12.1 nM |
| CC(C)(O)C(=O)N1CCC(c2ccc(NC(=O)C3CN(c4ccnnc4)C3)cc2)CC1 [Example 85, N-{4-[1-(2-hydroxy-2-methylpropanoyl)piperidin-4-yl]phenyl}-1-(pyridazin-4-yl)azetidine-3-carboxamide] | 20.5 nM |
| CC(C)(C)C(=O)N1CCC(c2ccc(NC(=O)C3CN(c4cccnn4)C3)cc2)CC1 [Example 402, N-{4-[1-(2,2-dimethylpropanoyl)piperidin-4-yl]phenyl}-1-(pyridazin-3-yl)azetidine-3-carboxamide] | 1.68 nM |
| Cc1ncccc1N1CC(C(=O)Nc2ccc(C3CCN(C(=O)C(C)(C)C)CC3)cc2)C1 [Example 185, N-{4-[1-(2,2-dimethylpropanoyl)piperidin-4-yl]phenyl}-1-(2-methylpyridin-3-yl)azetidine-3-carboxamide] | 74.2 nM |
| Cc1ccc(N2CC(C(=O)Nc3ccc(C4CCN(C(=O)C(C)(C)C)CC4)cc3)C2)nn1 [Example 852, N-{4-[1-(2,2-dimethylpropanoyl)piperidin-4-yl]phenyl}-1-(6-methylpyridazin-3-yl)azetidine-3-carboxamide] | 12.4 nM |
| O=C(Nc1ccc(C2CCN(C(=O)CC3CCCC3)CC2)cc1)[C@H]1CCN(c2cccnn2)C1 [Example 644, (3S)-N-{4-[1-(cyclopentylacetyl)piperidin-4-yl]phenyl}-1-(pyridazin-3-yl)pyrrolidine-3-carboxamide] | 8.23 nM |
| CCC(C)(C)C(=O)N1CC[C@@H](Oc2ccc(NC(=O)C3CN(c4ccnnc4)C3)cc2)C1 [Example 473, N-(4-{[(3R)-1-(2,2-dimethylbutanoyl)pyrrolidin-3-yl]oxy}phenyl)-1-(pyridazin-4-yl)azetidine-3-carboxamide] | 9.3 nM |
| CC(C)Cn1cc(-c2ccc(C(=O)N[C@H]3CCN(c4cccnc4)C3)s2)cn1 [Example 608, 5-[1-(2-methylpropyl)-1H-pyrazol-4-yl]-N-[(3S)-1-(pyridin-3-yl)pyrrolidin-3-yl]thiophene-2-carboxamide] | 712 nM |
| O=C(Nc1ccc(C2CCN(C(=O)C3CCCO3)CC2)cc1)C1CN(c2cccnn2)C1 (centres unmarked) [Example 412, 1-(pyridazin-3-yl)-N-{4-[1-(tetrahydrofuran-2-ylcarbonyl)piperidin-4-yl]phenyl}azetidine-3-carboxamide] | 1.37 nM |
| CC1CC1C(=O)N1CCC(Oc2ccc(NC(=O)C3CN(c4cccnc4)C3)cc2)CC1 (centres unmarked) [Example 35, N-[4-({1-[(2-methylcyclopropyl)carbonyl]piperidin-4-yl}oxy)phenyl]-1-(pyridin-3-yl)azetidine-3-carboxamide] | 6.92 nM |
| COCCOCC(=O)N1CCC(c2ccc(NC(=O)C3CN(c4cccnc4)C3)cc2)CC1 [Example 123, N-(4-{1-[(2-methoxyethoxy)acetyl]piperidin-4-yl}phenyl)-1-(pyridin-3-yl)azetidine-3-carboxamide] | 1.03 nM |
